Reference: patent US20240043456A1 (Unity Biotechnology, Inc., priority 2020, published 2024)

How the values were obtained:
[1] = Chemical stability of free acid and salts during salt preparation; assay type: physicochemical
[2] = 12-month stability test, HPLC; assay type: physicochemical; parameters: HPLC result, RRT 1.09: unit not given beside the values; conditions: for HPLC result, RRT 0.86 / HPLC result, RRT 0.94 / HPLC result, RRT 1 / HPLC result, RRT 1.05 / HPLC result, RRT 1.09 / HPLC result, RRT 1.15 / HPLC result, RRT 1.27 / HPLC result, RRT 1.29 / HPLC result, RRT 1.65: 2-8° C.

With `Nc1cc(Cl)nc(C(=O)[O-])c1Cl.[K+]` [potassium salt] the “stability of the salt” value [1] was “unstable”.

For “(R)-5-(4-chlorophenyl)-1-isopropyl-2-methyl-4-(3-(4-(4-((4-((1-(phenylthio)-4-(4-((phosphonooxy)methyl)piperidin-1-yl)butan-2-yl)amino)-3-((trifluoromethyl)sulfonyl)phenyl)sulfonamido)phenyl)piperazin-1-yl)phenyl)-1H-pyrrole-3-carboxylic acid meglumine salt”, the chemical stability ([1]; under experimental conditions) was “chemically stable”, the “HPLC result, RRT 0.86” value ([2]; 1 month) was 0.05 and the “HPLC result, RRT 0.94” value ([2]; 1 month) was 0.07. The “HPLC result, RRT 1” value ([2]; 1 month) was 99.4, the “HPLC result, RRT 1.05” value ([2]; 1 month) was less than 0.05 and the “HPLC result, RRT 1.09” value ([2]; 1 month) was 0.07. For the same compound, the “HPLC result, RRT 1.15” value ([2]; 1 month) was less than 0.05, the “HPLC result, RRT 1.27” value ([2]; 1 month) was less than 0.05 and the “HPLC result, RRT 1.29” value ([2]; 1 month) was 0.38. For the same compound, the “HPLC result, RRT 0.86” value ([2]; 2 months) was 0.05, the “HPLC result, RRT 0.94” value ([2]; 2 months) was 0.07 and the “HPLC result, RRT 1” value ([2]; 2 months) was 99.4. The “HPLC result, RRT 1.05” value ([2]; 2 months) was less than 0.05, the “HPLC result, RRT 1.09” value ([2]; 2 months) was 0.08 and the “HPLC result, RRT 1.15” value ([2]; 2 months) was less than 0.05. The “HPLC result, RRT 1.27” value ([2]; 2 months) was less than 0.05, the “HPLC result, RRT 1.29” value ([2]; 2 months) was 0.40 and the “HPLC result, RRT 0.86” value ([2]; 2 weeks) was less than 0.05. For the same compound, the “HPLC result, RRT 0.94” value ([2]; 2 weeks) was 0.07, the “HPLC result, RRT 1” value ([2]; 2 weeks) was 99.4 and the “HPLC result, RRT 1.05” value ([2]; 2 weeks) was less than 0.05. The “HPLC result, RRT 1.09” value ([2]; 2 weeks) was 0.07, the “HPLC result, RRT 1.15” value ([2]; 2 weeks) was less than 0.05 and the “HPLC result, RRT 1.27” value ([2]; 2 weeks) was less than 0.05. The “HPLC result, RRT 1.29” value ([2]; 2 weeks) was 0.38, the “HPLC result, RRT 1.65” value ([2]; 2 weeks) was less than 0.05 and the “HPLC result, RRT 0.86” value ([2]; 3 months) was 0.09. For the same compound, the “HPLC result, RRT 0.94” value ([2]; 3 months) was less than 0.05, the “HPLC result, RRT 1” value ([2]; 3 months) was 99.5 and the “HPLC result, RRT 1.05” value ([2]; 3 months) was less than 0.05. For the same compound, the “HPLC result, RRT 1.09” value ([2]; 3 months) was 0.08, the “HPLC result, RRT 1.15” value ([2]; 3 months) was less than 0.05 and the “HPLC result, RRT 1.27” value ([2]; 3 months) was less than 0.05. For the same compound, the “HPLC result, RRT 1.29” value ([2]; 3 months) was 0.36, the “HPLC result, RRT 1.65” value ([2]; 3 months) was less than 0.05 and the “HPLC result, RRT 0.86” value ([2]; 6 months) was 0.05. For the same compound, the “HPLC result, RRT 0.94” value ([2]; 6 months) was 0.06, the “HPLC result, RRT 1” value ([2]; 6 months) was 99.3 and the “HPLC result, RRT 1.05” value ([2]; 6 months) was 0.05. For the same compound, the “HPLC result, RRT 1.09” value ([2]; 6 months) was 0.06, the “HPLC result, RRT 1.15” value ([2]; 6 months) was less than 0.05 and the “HPLC result, RRT 1.27” value ([2]; 6 months) was less than 0.05. The “HPLC result, RRT 1.29” value ([2]; 6 months) was 0.44, the “HPLC result, RRT 1.65” value ([2]; 6 months) was less than 0.05 and the “HPLC result, RRT 0.86” value ([2]; 9 months) was 0.08. For the same compound, the “HPLC result, RRT 0.94” value ([2]; 9 months) was 0.06, the “HPLC result, RRT 1” value ([2]; 9 months) was 99.2 and the “HPLC result, RRT 1.05” value ([2]; 9 months) was 0.07. The “HPLC result, RRT 1.09” value ([2]; 9 months) was 0.09, the “HPLC result, RRT 1.15” value ([2]; 9 months) was less than 0.05 and the “HPLC result, RRT 1.27” value ([2]; 9 months) was 0.1. The “HPLC result, RRT 1.29” value ([2]; 9 months) was 0.41, the “HPLC result, RRT 1.65” value ([2]; 9 months) was less than 0.05 and the “HPLC result, RRT 0.86” value ([2]; 12 months) was 0.08. The “HPLC result, RRT 0.94” value ([2]; 12 months) was 0.06, the “HPLC result, RRT 1” value ([2]; 12 months) was 99.4 and the “HPLC result, RRT 1.05” value ([2]; 12 months) was less than 0.05. The “HPLC result, RRT 1.09” value ([2]; 12 months) was less than 0.05, the “HPLC result, RRT 1.15” value ([2]; 12 months) was 0.07 and the “HPLC result, RRT 1.27” value ([2]; 12 months) was 0.09. For the same compound, the “HPLC result, RRT 1.29” value ([2]; 12 months) was 0.14, the “HPLC result, RRT 1.65” value ([2]; 12 months) was 0.18 and the “HPLC result, RRT 0.86” value ([2]; T0) was 0.06. The “HPLC result, RRT 0.94” value ([2]; T0) was 0.07, the “HPLC result, RRT 1” value ([2]; T0) was 99.6 and the “HPLC result, RRT 1.05” value ([2]; T0) was less than 0.05. The “HPLC result, RRT 1.09” value ([2]; T0) was 0.06, the “HPLC result, RRT 1.15” value ([2]; T0) was less than 0.05 and the “HPLC result, RRT 1.27” value ([2]; T0) was less than 0.05. The “HPLC result, RRT 1.29” value ([2]; T0) was 0.22, the “HPLC result, RRT 1.65” value ([2]; T0) was less than 0.05 and the “change in purity over test period (FIG. 20)” value ([2]; 12 month test period) was “little to no change”.
